Measurements from patent US20230329304A1, “METABOLIC THERAPY OF CANCER” (AMINOVITA S.L., priority 2020, published 2023).

How the values were obtained:
B16-F10 cells = experiment: Survival of mice with melanoma (B16-F10 cells, intravenous model); type: in vivo, female C57BL/6J mice; conditions: B16-F10 cells, 500.000, tail vein injection (iv), C57BL/6J mice
Description: (§1) All mice were purchased from Janvier Labs® (France). Male BALB/cAnNRJ mice were used for the renal cancer model (Renca cells, intraperitoneal model). Female BALB/cAnNRJ mice were used for the colon cancer models (CT26WT cells, intraperitoneal and intravenous models), and for the triple negative breast cancer model (4T1 cells, intravenous model). Female C57BL/6J mice were used for the lung cancer model (LLc1 cells, intravenous model) and for the melanoma model (B16-F10 cells, intravenous model). All mice were 12 weeks or older at the beginning of the experiments. Treatments started 8 days after the injection of the cancer cells for the 4T1 breast cancer model and for the Renca renal cancer model (when the number of injected cells was 100.000). Treatments started 7 days after the injection for the Renca cancer model when the number of inoculated cells was 150.000, and for the LLc1 lung cancer model. […]
(§2) Murine cells (5th-7th passage) were cultured in 75-cm2 flask. […] Cells were counted again. […] After inoculating the last mice, the cells in the last tube were placed in a flask and monitored during several weeks under the microscope to ensure that all mice were inoculated with viable cells.
(§3) One day before the start of the treatments, mice were housed in individual cages to avoid cannibalism. […] Animals were monitored daily and body weights were determined periodically (at least three times per week). […]

4T1 cancer cells = experiment: Survival of mice with triple negative breast cancer (4T1 cells, intravenous model); type: in vivo; conditions: for mean survival (FIG. 4): 100,000 4T1 cells tail vein, treatment from day 8, diets 28 days, capecitabine 450 mg/kg/day oral cycles, cisplatin 5 mg/kg weekly x4 ip, control 26.1 days; for Survival improvement vs untreated mice (mean, days): Breast cancer, 4T1 cells, 100.000, tail vein injection (iv)
Description: (§4) All mice were purchased from Janvier Labs® (France). Male BALB/cAnNRJ mice were used for the renal cancer model (Renca cells, intraperitoneal model). Female BALB/cAnNRJ mice were used for the colon cancer models (CT26WT cells, intraperitoneal and intravenous models), and for the triple negative breast cancer model (4T1 cells, intravenous model). Female C57BL/6J mice were used for the lung cancer model (LLc1 cells, intravenous model) and for the melanoma model (B16-F10 cells, intravenous model). All mice were 12 weeks or older at the beginning of the experiments. Treatments started 8 days after the injection of the cancer cells for the 4T1 breast cancer model and for the Renca renal cancer model (when the number of injected cells was 100.000). Treatments started 7 days after the injection for the Renca cancer model when the number of inoculated cells was 150.000, and for the LLc1 lung cancer model. Treatments started 4 days after the injection in the CT26WT colon cancer models (intraperitoneal and intravenous) and in the B16-F10 melanoma model.
(§5) Murine cells (5th-7th passage) were cultured in 75-cm2 flask. When the cells were approximately 60-70% confluent, medium was removed and cells were washed twice with sterile PBS. Then, cells were incubated with trypsin/EDTA solution for 2-3 min at 37° C. to allow cells to have a rounded shape but without detaching. Next, trypsin/EDTA solution was aspirated, cells were resuspended in 5 mL sterile PBS and the cell suspension was pipetted up and down to break up any cell aggregate before adding 10% FBS supplemented medium. Then, a working cell suspension (between 5×10^5-25×10^6 cells/mL depending on cancer model) was prepared. This suspension was centrifuged (5 min, 250 g) at room temperature. Medium was removed and cells were resuspended in warm 2.5% FBS supplemented medium. The working cell suspension was aliquoted into 2 mL tubes and they were kept at 37° C. in a humidified atmosphere containing 5% CO2 until use. Several minutes before the injection, tubes were centrifuged at 300 g 4° C. for 3 min, medium was removed and cells were resuspended in sterile PBS. Cells were counted again. Finally, a 1-mL syringe (insulin type with a 29-G×½″ needle) was filled with 0.2 mL of the working cell suspension, which was injected in the peritoneal cavity or in the tail vein of the mice. After inoculating the last mice, the cells in the last tube were placed in a flask and monitored during several weeks under the microscope to ensure that all mice were inoculated with viable cells.
One day before the start of the treatments, mice were housed in individual cages to avoid cannibalism. Treatments started four, seven or eight days (depending on the model) after injecting the cancer cells. Most treatments with the artificial diets lasted at least 4 weeks. Treatment with the artificial diets simply consisted of replacing their normal diet with an artificial diet in which the levels of specific AAs and lipids were manipulated. Sunitinib, and capecitabine were administered daily in the diet. Cisplatin and the anti-PD1 antibody were injected intraperitoneally. Animals were monitored daily and body weights were determined periodically (at least three times per week). […] Post-mortem examination was carried out to confirm the cause of death and to observe the extent of the disease. Autopsies confirmed the presence of tumors in all euthanized mice. […]

Renca cancer cells = experiment: Survival of mice with renal cancer (Renca cells, intraperitoneal model); type: in vivo, male BALB/cAnNRJ mice
Description: as §4, §5, §3

CT26.WT cancer cells [1] = experiment: Survival of mice with colon cancer (CT26.WT cells, intraperitoneal model); type: in vivo, female BALB/cAnNRJ mice
Description: as §4
Murine cells (5th-7th passage) were cultured in 75-cm2 flask. When the cells were approximately 60-70% confluent, medium was removed and cells were washed twice with sterile PBS. Then, cells were incubated with trypsin/EDTA solution for 2-3 min at 37° C. to allow cells to have a rounded shape but without detaching. Next, trypsin/EDTA solution was aspirated, cells were resuspended in 5 mL sterile PBS and the cell suspension was pipetted up and down to break up any cell aggregate before adding 10% FBS supplemented medium. […] Cells were counted again. […] After inoculating the last mice, the cells in the last tube were placed in a flask and monitored during several weeks under the microscope to ensure that all mice were inoculated with viable cells.
as §3

CT26.WT cancer cells [2] = experiment: Survival of mice with colon cancer (CT26.WT cells, intravenous model); type: in vivo, female BALB/cAnNRJ mice
Description: as §1, §2, §3

N.N.[Cl][Pt][Cl] [Cisplatin]
Survival improvement vs untreated mice (mean, days) (B16-F10 cells): +3.5 days
mean survival (FIG. 4) (4T1 cancer cells): 33.6 days
Survival improvement vs untreated mice (mean, days) (4T1 cancer cells): +4.7 days

CCN(CC)CCNC(=O)c1c(C)[nH]c(/C=C2\C(=O)Nc3ccc(F)cc32)c1C [Sunitinib, Sunitinib malate]
mean survival (FIG. 1) (Renca cancer cells; 100,000 Renca cells ip, treatment from day 8, P2 28 days, sunitinib 60 mg/kg/day 28 days oral, anti-PD1 250 μg ip x4, control 35.2 days): 62.2 days
Mean survival (Renca cancer cells; 150,000 Renca cells ip, treatment from day 7, 28 days, 10 days normal diet, 21 more days, sunitinib 60 mg/kg/day oral, control 30.75): 48 days
Survival improvement vs. Control (Renca cancer cells; 150,000 Renca cells ip, treatment from day 7, Table 4 experiment): 17.25 days
Survival improvement vs untreated mice (mean, days) (Renca cancer cells; Renal cancer, renca cells, 100.000, intraperitoneal injection (ip)): +20.4 days

CCCCCOC(=O)Nc1nc(=O)n([C@@H]2O[C@H](C)[C@@H](O)[C@H]2O)cc1F [Capecitabine]
mean survival (FIG. 2) (CT26.WT cancer cells [1]; 100,000 CT26.WT cells ip, treatment from day 4, P10 6 weeks, capecitabine 450 mg/kg/day oral cycles, control 24.6 days): 27.7 days
days lived more than untreated mice (CT26.WT cancer cells [1]; 100,000 CT26.WT cells ip, treatment from day 4, diets 6 weeks, capecitabine 450 mg/kg/day, 7-day treatment+7-day rest, oral): 4.5 days
Survival improvement vs untreated mice (mean, days) (CT26.WT cancer cells [1]; Colon cancer, CT26.WT cells, 10.000, intraperitoneal injection (ip)): +7.6 days
premature deaths by drug toxicity (4T1 cancer cells; 4T1 iv model, capecitabine 450 mg/kg/day, 7-day treatment+7-day rest, oral, n=10): two mice died prematurely by excessive drug toxicity
mean survival (FIG. 4) (4T1 cancer cells): 24.2 days
Survival improvement vs untreated mice (mean, days) (4T1 cancer cells): +3.7 days
mean survival (FIG. 3) (CT26.WT cancer cells [2]; 100,000 CT26.WT cells tail vein, treatment from day 4, P6 28 days, capecitabine 450 mg/kg/day oral cycles, control 33.3 days): 36.7 days
Survival improvement vs untreated mice (mean, days) (CT26.WT cancer cells [2]; Colon cancer, CT26.WT cells, 10.000, tail vein injection (iv)): 0.0 days
